The nature of series [1]: Solubility of paracetamol in dilute solutions (absorbance at 240 nm of filtrate). Type of series: physicochemical.
A short description of series [2]: Paracetamol instability in solution and breakdown products. The settings on record: in water or in solution no 20. Type of series: physicochemical.
The nature of series [3]: pH stability of concentrated paracetamol solution. Type of series: physicochemical. The method, then:
Vials that had been filled under nitrogen atmosphere by dispensing 10 ml of such solutions, tightly stoppered and capped, were sterilized by autoclaving at 121° C. for 20 minutes, and then in every case exposed, either to a temperature of 105° C. in the dark for 72 hours, or to a radiation of an actinic light at 5000° K. and 25° C. during 264 hours.

Series [4] is described as follows: Predicted time to 5% decrease in paracetamol concentration (Arrhenius law). Type of series: physicochemical. The conditions noted are these: 25° C., optimal pH, aqueous solution; predicted by Arrhenius law.
The conditions of series [5]: aqueous solution; cited from earlier work.
The conditions of series [6]: cited from earlier work.
Series [7] can be described thus: HPLC assay of paracetamol and codein before and after autoclaving. The conditions noted are these: for assay, after sterilization: 121° C. 20 minutes.
The conditions of series [8]: toxic metabolite of paracetamol; cited from earlier work.
Where [9] appears, read: containing 0.5 mg/ml of cystein hydrochloride.
The mark [10] stands for this setting: no free radical scavenger added.

`CC(=O)Nc1ccc(O)cc1` [paracetamol, N-acetyl-p-aminophenol]: in series [1], the “effect of PEG on paracetamol solubility” value is listed as “increased by the presence of PEG”. Further, in series [2] (50° C.), the “time to color development” value was 2 weeks. For the same molecule, the “color upon exposure to light or storage at high temperature” value in series [2] was “shows rapidly a pink color”. Further, in series [3] (pH 7,0 (actual pH 5,8), actinic light, 264 hours), the “Color development upon storage in the presence of light” value is reported as “extremely weak”. Besides, the “effect of pH on paracetamol content and breakdown products” value in series [3] (storage in the presence of light) is listed as “Neither the paracetamol content, nor the breakdown products are affected by pH”. Besides, in series [4], the “time needed to observe a 5% decrease in paracetamol concentration” value is 19 months. In addition, the “pH of minimal breakdown” value in series [5] is approximately 6. Further, the “p-aminophen content from hydrolysis, % of initial paracetamol concentration” value in series [6] (0.1% aqueous solution, dark, 120 days) is listed as ~19,8%. Also, the “ammonia yield with EDTA added” value in series [6] (1000 ppm of ascorbic acid + EDTA (0.0075%)) is not above 14%. The “ammonia yield upon exposure to bright light” value in series [6] (1000 ppm of ascorbic acid) was 98%. In addition, the “decomposition rate with EDTA” value in series [6] (EDTA 0.0075%, 0.1% aqueous solution) is listed as 7%. In addition, the “ammonia concentration on distilling an alkaline solution” value in series [6] (in presence or not of 1000 ppm of ascorbic acid) is reported as 14%. Also, in series [7] (setting [9]), the “assay, non sterilized solution” value worked out at 0.0082 g/mL and the “assay, after sterilization” value turned out to be 0.0081 g/mL. Moreover, in series [7] (setting [10]), the “assay, non sterilized solution” value turned out to be 0.0078 g/mL and the “assay, after sterilization” value is 0.0077 g/mL.
As for `CC(=O)N=C1C=CC(=O)C=C1` [N-acetyl-p-benzoquinone-imine], the toxic effect result in series [8] was “cytotoxic and hemolytic effect”.

Values taken from US6028222A (priority 1996, dated 2000).
